Source: patent US10442767B2 (priority 2012, dated 2019)
Where two headings read alike, the source gives them in different places.

What was measured:
Shaker K^+ channel = target: T1, Shaker K^+ channel (Drosophila melanogaster, UniProt P08510); assay: Inhibition of K+ currents, cut-open oocyte voltage clamp; type: cell-based, Xenopus oocytes; conditions: for fold less potent than 4-AP: cut-open oocyte voltage clamp (Example 2); for IC50: relative K+ current at +20 mV, Xenopus oocytes, Hill fit, read-out: half-maximal inhibitory concentration (IC50)
T1 construct: injecting approximately 50 ng of WT Shaker cRNA (kit Ambion) into the oocytes; expressed in transfected cells; host or cells: Xenopus laevis oocytes (cRNA injection)
Experimental: Using the cut-open oocyte voltage clamp studies to screen compounds to determine their potency towards Kv1 cannels was previously described in Starace and Bezanilla et al. (2004).
For this experiment, Shaker K^+ channel from D. […] was chosen as the archetypical voltage gated K^+ channel that gives name to the family.
Electrophysiology studies are conducted according to the protocol by Stefani and Bezanilla (1998). Briefly, K^+ channel Shaker cRNA is injected into Xenopus oocytes 24 h after their surgical extraction from adult frogs. 1-5 days after injection channel currents are recorded using the cut-open voltage-clamp.
K^+ channel expression in Xenopus oocytes membranes was achieved by injecting approximately 50 ng of WT Shaker cRNA (kit Ambion) into the oocytes 24 h after surgical extraction from adult frogs and collagenase treatment. Injected oocytes were maintained in a standard oocytes solution (100 mM NaCl, 5 mM KCl, 2 mM CaCl2, and 10 mM Hepes at pH 7.5) at 16.5° C. and recordings were performed 1-3 days after injection.
K^+ currents were recorded from oocytes expressing Shaker K^+ channels using the cut-open voltage clamp technique as described by Stefani and Bezanilla. The internal solution was 120 mM KOH, 20 mM HEPES-methyl sulfonate (MES) pH 7.4, 2 mM EGTA. The external solution was 12 mM KOH, 105 mM N-methyl-D-glucamine-MES pH 7.4, 20 mM HEPES, 2 mM CaOH. […] After application, cells were voltage-clamped at least 5 min at 0 mV, then voltage-clamped at −80 mV for 1-2 min. K^+ currents were generated by applying series of 50 ms pulses from −70 mV to +40 mV in increments of 10 mV. […] Analysis of the traces was done using an in-house software. The half-maximal inhibitory concentration (IC50) for each drug was calculated by plotting the relative K^+ current vs. concentration and fitted to the Hill equation using the software Origin.
(§1) EC50=10^<log EC50>; where <log EC50>=average of log EC50 values from all experiments with the same drug. 95% C.I.=[Upper Limit . . . Lower Limit]; where U.L.=10^(log EC50+s.d.) and L.L.=10^(log EC50−s.d.). The half-life (t1/2) in the stability and pharmacokinetic experiments was calculated by fitting the data to the equation Ct=C0*exp(−k*t) where C0=initial concentration, Ct=concentration at time t, and k=ln 2/t1/2. Student t-test was used to compare results and P<0.05 was considered significant.

[1] = system: hypomyelinated optic nerves from Shiverer mice (shi^−/−); assay: Compound action potential (CAP) of dissected hypomyelinated optic nerve; type: cell-based, mouse; conditions: for EC50: Mus musculus, hypomyelinated Shiverer optic nerve, 22 °C, Hill fit, read-out: half-maximal effective concentration (EC50) in enhancing the CAP
Experimental: (§2) In order to determine if the drugs could also be effective in enhancing compound action potentials (CAP), the effects of these compounds on the CAP of hypomyelinated optic nerves from Shiverer mice (shi^−/−) and control mice (shi^+/−, shi^+/+) were tested. Shiverer mice lack compact myelin in the CNS due to a null mutation of the myelin basic protein gene (MBP).
optic nerves were dissected from 12-16 week old Shiverer (shi^−/−) and control mice (shi^+/− and shi^+/+). Mice were euthanized by CO2 overdose and the optic nerves were quickly dissected between the eyeball and the optic chiasm. The nerves were incubated for 30 min at 37° C. in oxygenated (95% O2, 5% CO2) aCSF solution (126 mM NaCl, 3 mM KCl, 2 mM MgSO4, 26 mM NaHCO3, 2 mMCaCl2, 10 mM dextrose, pH 7.5) before the experiment.
compound action potentials (CAP) from hypomyelinated nerves (Shiverer mice, shi^−/−) and myelinated nerves (litermate controls, shi^+/− and shi^+/+) were recorded using suction electrodes as described by Stys et al. Briefly, the dissected optic nerve was placed inside a chamber containing oxygenated (5% CO2, 95% O2) aCSF (300 μL) between two suction electrodes (stimulus and recording electrodes) forming a tight seal on each end. Two additional electrodes were placed in the bath for reference. A supramaximal pulse (250 mV, 20 μs) was applied at the stimulating end of the nerve. The resulting CAP was amplified from the recording electrode using a high impedance low-noise amplifier (EG&G Princeton Applied Research Corporation) and filtered and sampled at 10-100 kHz. […] After each measurement the chamber was washed for 5 min (flow 1 mL/min) with oxygenated aCSF. The study was conducted at 22.2±1.3° C. to allow for slower conduction and the temperature was monitored throughout the experiment. CAP recordings were acquired with a SBC6711 board (Innovative Integration) controlled by in-house written software. Analysis of the traces was done using an in-house software. The half-maximal effective concentration (EC50) for each drug was calculated by plotting the final over initial amplitude vs. concentration and fitted to the Hill equation using Origin.
as §1, with “The Hill equation used to fit the data from the voltage-clamp and the optic nerve experiments was as follows: y=y0+(yf−y0)*x^n/(k^n+x^n); where n refers to the Hill coefficient (typically 1±0.1) and k refers to EC50 or IC50. y0 and yf refers to the origin and final ordinate values and were fixed at 1±0.1 or 0±0.1 depending on the experiment. EC50=10^<log” for “EC50=10^<log”

C57Bl/6J mice = assay: In vivo effects (tremor, seizures) after intraperitoneal injection; set-up: species or system mouse; conditions: for effects in mice: doses up to 20 times higher; for Effect: N = 5
Experimental: A consequence of excessive K^+ channel blockage is the advent of seizures. 4-AP is known to cause seizures in mice at high doses.
At high doses, 4-AP causes tremors, muscle spasms and seizures.
10-week-old female C57Bl/6J mice were given an intraperitoneal injection of the drug under investigation and monitored continuously for 4 h. After 4 h no signs of drug effects could be observed. At least 72 h passed between injections to the same mice.

[2] = system: normally myelinated optic nerves from control mice (shi^+/−, shi^+/+); assay: Compound action potential (CAP) of dissected normally myelinated optic nerve; type: cell-based, mouse
Experimental: as §2
optic nerves were dissected from 12-16 week old Shiverer (shi^−/−) and control mice (shi^+/− and shi^+/+). Mice were euthanized by CO2 overdose and the optic nerves were quickly dissected between the eyeball and the optic chiasm. […]
compound action potentials (CAP) from hypomyelinated nerves (Shiverer mice, shi^−/−) and myelinated nerves (litermate controls, shi^+/− and shi^+/+) were recorded using suction electrodes as described by Stys et al. Briefly, the dissected optic nerve was placed inside a chamber containing oxygenated (5% CO2, 95% O2) aCSF (300 μL) between two suction electrodes (stimulus and recording electrodes) forming a tight seal on each end. […] The study was conducted at 22.2±1.3° C. to allow for slower conduction and the temperature was monitored throughout the experiment. […] The half-maximal effective concentration (EC50) for each drug was calculated by plotting the final over initial amplitude vs. concentration and fitted to the Hill equation using Origin.

[3] = Parallel Artificial Membrane Permeability Assay (PAMPA); type: in vitro ADME; conditions: porcine polar brain lipids, 0.5 mM, 16 h, n=3
Experimental: In this experiment, the inventors included highly permeable verapamil and lowly permeable theophylline as controls.
Permeability studies were performed as previously described by Sugano, et al., 2011. A 96-well microplate (acceptor compartment) was filled with PBS containing 5% DMSO. A hydrophobic filter plate (donor compartment) was placed atop the buffer-filled plate and the filter surface was impregnated with 5 μL solution of porcine polar brain lipids (Avanti Lipids) in dodecane (1% w/v). 150 μL of the test compounds dissolved in PBS containing 5% DMSO (compound concentration 0.5 mM) was added to the donor compartment and covered. The only barrier between the two compartments was the artificial BBB membrane containing the porcine polar brain lipids. The whole system was incubated for several hours.

[4] = Pharmacokinetic study after single intravenous dose; type: in vivo, mice (CD-1); conditions: female, CD-1, mouse, mice, i.v. 0.75 mg/kg
Experimental: 39 mice (CD-1, 6-weeks old, female) were used in the study. […] The drugs were dissolved in PBS and administered via tail-vein injection to achieve a dose of 0.75 mg/kg of body weight. At specific times post injection (10 min, 30 min, 1 h, 2 h, 4 h and 24 h) blood and brain samples were collected. Blood samples were transferred into tubes containing 5% EDTA, stored on ice, and centrifuged (4° C., 1000 rpm, 15 min). Plasma (upper phase) was transferred to a new tube and stored at −80° C. for further analysis. Brain tissue samples were collected after intracardial perfusion of the mouse. Brain tissue samples were stored at −80° C. for further analysis. Drug quantification in plasma: Briefly, to a 1.5 mL Eppendorf tube containing 50 μl of plasma, 200 μl of ice-cold acetonitrile containing 1,000 ng/ml Progesterone (used as internal standard) was added in order to precipitate the proteins. The sample was vortexed, mixed and centrifuged at 4000×g for 10 min at 4° C. to remove precipitates. 140 μl supernatant was collected and transferred to a 500 μl 96-well polypropylene plate and covered using silicone plate mat. 40 μl of sample was injected in into LC-MS. Using the same sample preparation procedure 11 standard solutions ranging from 50 ng/mL to 100 μg/mL were prepared, analyzed by LC-MS and used as a calibration curve to correlate peak area of the samples to concentration. Drug quantification in brain: the mouse brain was weighted and 1 mL of water per 400 mg of tissue was added. The sample was homogenized using an electric tissue homogenizer. To a 1.5 mL Eppendorf tube containing 50 μl of homogenized sample, 200 μl of ice-cold acetonitrile containing 1000 ng/ml Demeclocycline (used as internal standard) was added in order to precipitate the proteins. The sample was vortexed, mixed and centrifuged at 4000×g for 10 min at 4° C. to remove precipitates. 140 μl supernatant was collected and transferred to a 500 μl 96-well polypropylene plate and covered using silicone plate mat. 40 μl of each sample was injected into LC-MS. Using the same sample preparation procedure 11 standard solutions ranging from 50 ng/mL to 100 μg/mL were prepared, analyzed by LC-MS and used as a calibration curve to correlate peak area of the samples to concentration.
as §1, with “The Hill equation used to fit the data from the voltage-clamp and the optic nerve experiments was as follows: y=y0+(yf−y0)*x^n/(k^n+x^n); where n refers to the Hill coefficient (typically 1±0.1) and k refers to EC50 or IC50. y0 and yf refers to the origin and final ordinate values and were fixed at 1±0.1 or 0±0.1 depending on the experiment. EC50=10^<log” for “EC50=10^<log”

[5] = Brain distribution of [^3H] 4-AP in LPC-injected mice by autoradiography; type: in vivo; conditions: [^3H] 4-AP 0.4 μCi/g i.v., 20-60 min
Experimental: The inventors conducted an experiment to evaluate if 4-AP selectively localizes in demyelinated (injured) areas. […] The lesions were caused by prior injection of lysophosphatidylcholine (LPC), also called lysolecithin, into their brains, which causes focal demyelination at the site of injection. Two days after LPC injection, at the peak of demyelination, the animals were injected with [^3H] […] Twenty to sixty minutes after injection of [^3H] 4-AP the mice were euthanized and their brains were dissected and frozen. The frozen brains were then cut into 20 μm sections using a cryostat and the sections mounted in slides. The slides were then exposed to radiation sensitive X-ray film at −80° C. in the dark for forty days to capture the distribution of radioactivity coming from [^3H] 4-AP throughout the brain.
After autoradiographic exposure, the slides were stained for myelin basic protein (MBP) using immunohistochemistry and imaged using fluorescent microscopy to determine the areas of demyelination.

K^+ channels = conditions: cited from earlier work

T1 sequence (P08510 whole entry): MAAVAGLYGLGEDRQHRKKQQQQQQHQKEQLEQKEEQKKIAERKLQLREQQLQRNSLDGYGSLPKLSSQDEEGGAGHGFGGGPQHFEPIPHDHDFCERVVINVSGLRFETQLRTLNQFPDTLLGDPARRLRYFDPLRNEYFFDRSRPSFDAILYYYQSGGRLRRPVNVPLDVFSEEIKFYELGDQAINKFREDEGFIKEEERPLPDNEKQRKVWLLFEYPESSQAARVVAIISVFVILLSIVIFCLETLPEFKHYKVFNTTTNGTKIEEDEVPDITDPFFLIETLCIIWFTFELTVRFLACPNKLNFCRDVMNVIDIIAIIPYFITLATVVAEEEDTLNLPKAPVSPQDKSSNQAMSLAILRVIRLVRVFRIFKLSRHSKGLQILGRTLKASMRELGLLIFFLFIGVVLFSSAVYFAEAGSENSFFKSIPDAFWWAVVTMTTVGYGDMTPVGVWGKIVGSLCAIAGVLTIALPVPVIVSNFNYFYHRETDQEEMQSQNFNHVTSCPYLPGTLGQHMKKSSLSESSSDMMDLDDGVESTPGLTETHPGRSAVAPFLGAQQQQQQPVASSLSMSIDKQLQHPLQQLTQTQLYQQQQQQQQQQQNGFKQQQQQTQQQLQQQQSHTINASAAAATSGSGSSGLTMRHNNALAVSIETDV

For `Nc1ccnc(F)c1` [2-F-4-AP, 2-fluoro-4-aminopyridine], the “fold less potent than 4-AP” value (Shaker K^+ channel) was “at least a hundred fold-less potent”, the IC50 (Shaker K^+ channel) was greater than 10000 µM and the “effect on CAP” value ([1]; hypomyelinated optic nerve) was “no effect”. The effects in mice (C57Bl/6J mice) was “did not cause any effects” and the Effect (C57Bl/6J mice; i.p., 1920 μmol/kg) was “No effect”.
In the case of `Nc1ccncc1CCF` [3-EtF-4-AP, 3-fluoroethyl-4-aminopyridine], the “fold less potent than 4-AP” value (Shaker K^+ channel) is reported as “at least a hundred fold-less potent” and the IC50 (Shaker K^+ channel) is reported as greater than 10000 µM.
With `Nc1ccncc1CF` [3-MeF-4-AP, 3-fluoromethyl-4-aminopyridine] the “fold less potent than 4-AP” value (Shaker K^+ channel) was “around 10 fold”, the IC50 (Shaker K^+ channel) was 7450 µM and the “times less potent than 4-AP” value (Shaker K^+ channel; voltage-clamp and optic nerve experiments together) was 6-20 times. For the same compound, the EC50 [1] was 286 µM, the Effect (C57Bl/6J mice; i.p., 30 μmol/kg) was “No effect” and the Effect (C57Bl/6J mice; i.p., 60 μmol/kg) was “Very mild tremor. Normal after 30 min”. For the same compound, the “duration of effect (tremors, seizures or jerks)” value (C57Bl/6J mice; i.p., 90 μmol/kg) was roughly 45 min, the Effect (C57Bl/6J mice; i.p., 90 μmol/kg) was “Tremor and occasional jerks that last ca” and the “duration of tremor and seizures” value (C57Bl/6J mice; i.p., 120 μmol/kg) was “min post-injection and last ca. 45 min”. For the same compound, the “mice died of seizure” value (C57Bl/6J mice; i.p., 120 μmol/kg) was 1 of 5 mice died of seizure, the “start of tremor and seizures post-injection” value (C57Bl/6J mice; i.p., 120 μmol/kg) was 5 min and the Effect (C57Bl/6J mice; i.p., 120 μmol/kg) was “Severe tremor and seizures”. The “in vivo potency compared with 4-AP” value (C57Bl/6J mice; i.p., mice) was “slightly less potent than 4-AP”.
With `Nc1ccncc1CO` [3-MeOH-4-AP, 3-methanol-4-aminopyridine, reference compound] the IC50 (Shaker K^+ channel) was 4380 µM, the EC50 [1] was 386 µM and the effects in mice (C57Bl/6J mice) was “did not cause any effects”. For the same compound, the Effect (C57Bl/6J mice; i.p., 960 μmol/kg) was “No effect”.
For `Nc1ccncc1` [4-AP, 4-aminopyridine, reference compound], the EC50 [1] was 59.2 µM, the “increase in CAP amplitude” value ([1]; hypomyelinated nerves) was 2-4 fold and the “increase in CAP amplitude” value [2] was “around 5%”. The Effect (C57Bl/6J mice; i.p., 30 μmol/kg) was “Mild tremor, mouse quiet”, the Effect (C57Bl/6J mice; i.p., 60 μmol/kg) was “Severe tremor, mild jerks, salivation” and the “duration of tremors and seizures” value (C57Bl/6J mice; i.p., 90 μmol/kg) was roughly 2 h. The “start of tremors and seizures post-injection” value (C57Bl/6J mice; i.p., 90 μmol/kg (highest dose)) was 10 min, the Effect (C57Bl/6J mice; i.p., 90 μmol/kg) was “Severe tremors and seizures that start” and the “Pe: permeability coefficient across artificial membrane” value [3] was 0.236 ± 0.003 ×10⁻⁶ cm/s. For the same compound, the Kp ([4]; brain and plasma, read-out: Cbrain/Cplasma (maximum in the brain over maximum in plasma)) was 0.1 ± 0.05, the half-life ([4]; brain, read-out: half-life in brain (converted)) was 1.9 h and the half-life ([4]; plasma, read-out: half-life in plasma (converted)) was 0.33 h. The “brain localization by autoradiography” value [5] was “localizes to demyelinated areas but not myelinated areas”, the in vitro affinity (K^+ channels; in vitro) was roughly 250 µM and the “concentration active in vivo” value (K^+ channels; in vivo) was roughly 0.5 µM.
